Source: article PMC9389804 (Journal of Hematology & Oncology, 2022)
Values joined by “and” are separate entries in the source; they are usually repeats but may differ in a detail not shown here. Equal values may be shown once.

Assay: safety assessments (adverse events, NCI CTCAE)
[1] = Grade 3/4 hematologic TRAE, all 165 patients
[2] = TRAE G 3/4, Accelerated phase CML n=38
[3] = TRAE G 3/4, Chronic phase CML n=127
[4] = TRAE any grades, Accelerated phase CML n=38
[5] = TRAE any grades, Chronic phase CML n=127

In the case of `Cc1ccc(C(=O)Nc2ccc(CN3CCN(C)CC3)c(C(F)(F)F)c2)cc1C#Cc1cnc2[nH]ncc2c1` [olverembatinib], the Anemia [1] is reported as 23.0%, the Neutropenia [1] is reported as 11.5% and the Thrombocytopenia [1] is reported as 51.5%. For the same molecule, the Anemia [2] was 12 (31.6) n (%), the Arthralgia [2] was 1 (2.6) n (%) and the Asthenia [2] was 0 n (%). For the same molecule, the Hematologic [2] was 26 (68.4) n (%), the Hyperbilirubinemia [2] was 1 (2.6) n (%) and the Hyperglycemia [2] was 0 n (%). The Hypertriglyceridemia [2] was 1 (2.6) n (%), the Hypoalbuminemia [2] was 0 n (%) and the Hypocalcemia [2] was 0 n (%). For the same molecule, the Hypokalemia [2] was 1 (2.6) n (%), the Hyponatremia [2] was 0 n (%) and the Increased alanine aminotransferase [2] was 1 (2.6) n (%). For the same molecule, the Increased alkaline phosphatase [2] was 0 n (%), the Increased aspartate aminotransferase [2] was 2 (5.3) n (%) and the Increased creatine phosphokinase [2] was 1 (2.6) n (%). For the same molecule, the “Increased γ-glutamyl transferase” value [2] was 0 n (%), the Leukopenia [2] was 13 (34.2) n (%) and the Myalgia [2] was 0 n (%). For the same molecule, the Neutropenia [2] was 8 (21.1) n (%), the Nonhematologic [2] was 20 (52.6) n (%) and the Pain in extremity [2] was 1 (2.6) n (%). The Proteinuria [2] was 1 (2.6) n (%), the Pyrexia [2] was 4 (10.5) n (%) and the Rash [2] was 0 n (%). The Sinus tachycardia [2] was 0 n (%), the Skin pigmentation [2] was 0 n (%) and the Thrombocytopenia [2] was 23 (60.5) n (%). For the same molecule, the Treatment-related adverse events [2] was 34 (89.5) n (%), the Anemia [3] was 26 (20.5) n (%) and the Arthralgia [3] was 0 n (%). For the same molecule, the Asthenia [3] was 0 n (%), the Hematologic [3] was 67 (52.8) n (%) and the Hyperbilirubinemia [3] was 3 (2.4) n (%). For the same molecule, the Hyperglycemia [3] was 1 (0.8) n (%), the Hypertriglyceridemia [3] was 11 (8.7) n (%) and the Hypoalbuminemia [3] was 0 n (%). The Hypocalcemia [3] was 0 n (%), the Hypokalemia [3] was 1 (0.8) n (%) and the Hyponatremia [3] was 1 (0.8) n (%). The Increased alanine aminotransferase [3] was 3 (2.4) n (%), the Increased alkaline phosphatase [3] was 1 (0.8) n (%) and the Increased aspartate aminotransferase [3] was 2 (1.6) n (%). For the same molecule, the Increased creatine phosphokinase [3] was 10 (7.9) n (%), the “Increased γ-glutamyl transferase” value [3] was 5 (3.9) n (%) and the Leukopenia [3] was 21 (16.5) n (%). For the same molecule, the Myalgia [3] was 0 n (%), the Neutropenia [3] was 11 (8.7) n (%) and the Nonhematologic [3] was 61 (48.0) n (%). For the same molecule, the Pain in extremity [3] was 1 (0.8) n (%), the Proteinuria [3] was 5 (3.9) n (%) and the Pyrexia [3] was 5 (3.9) n (%). The Rash [3] was 1 (0.8) n (%), the Sinus tachycardia [3] was 0 n (%) and the Skin pigmentation [3] was 0 n (%). For the same molecule, the Thrombocytopenia [3] was 62 (48.8) n (%), the Treatment-related adverse events [3] was 97 (76.4) n (%) and the Anemia (TRAE G 3/4, Total n=165) was 38 (23.0) n (%). The Arthralgia (TRAE G 3/4, Total n=165) was 1 (0.6) n (%), the Asthenia (TRAE G 3/4, Total n=165) was 0 n (%) and the Hematologic (TRAE G 3/4, Total n=165) was 93 (56.4) n (%). The Hyperbilirubinemia (TRAE G 3/4, Total n=165) was 4 (2.4) n (%), the Hyperglycemia (TRAE G 3/4, Total n=165) was 1 (0.6) n (%) and the Hypertriglyceridemia (TRAE G 3/4, Total n=165) was 12 (7.3) n (%). The Hypoalbuminemia (TRAE G 3/4, Total n=165) was 0 n (%), the Hypocalcemia (TRAE G 3/4, Total n=165) was 0 n (%) and the Hypokalemia (TRAE G 3/4, Total n=165) was 2 (1.2) n (%). The Hyponatremia (TRAE G 3/4, Total n=165) was 1 (0.6) n (%), the Increased alanine aminotransferase (TRAE G 3/4, Total n=165) was 4 (2.4) n (%) and the Increased alkaline phosphatase (TRAE G 3/4, Total n=165) was 1 (0.6) n (%). The Increased aspartate aminotransferase (TRAE G 3/4, Total n=165) was 4 (2.4) n (%), the Increased creatine phosphokinase (TRAE G 3/4, Total n=165) was 11 (6.7) n (%) and the “Increased γ-glutamyl transferase” value (TRAE G 3/4, Total n=165) was 5 (3.0) n (%). For the same molecule, the Leukopenia (TRAE G 3/4, Total n=165) was 34 (20.6) n (%), the Myalgia (TRAE G 3/4, Total n=165) was 0 n (%) and the Neutropenia (TRAE G 3/4, Total n=165) was 19 (11.5) n (%). The Nonhematologic (TRAE G 3/4, Total n=165) was 81 (49.1) n (%), the Pain in extremity (TRAE G 3/4, Total n=165) was 2 (1.2) n (%) and the Proteinuria (TRAE G 3/4, Total n=165) was 6 (3.6) n (%). The Pyrexia (TRAE G 3/4, Total n=165) was 9 (5.5) n (%), the Rash (TRAE G 3/4, Total n=165) was 1 (0.6) n (%) and the Sinus tachycardia (TRAE G 3/4, Total n=165) was 0 n (%). For the same molecule, the Skin pigmentation (TRAE G 3/4, Total n=165) was 0 n (%), the Thrombocytopenia (TRAE G 3/4, Total n=165) was 85 (51.5) n (%) and the Treatment-related adverse events (TRAE G 3/4, Total n=165) was 131 (79.4%) n (%) and 131 (79.4) n (%). For the same molecule, the Anemia [4] was 24 (63.2) n (%), the Arthralgia [4] was 8 (21.1) n (%) and the Asthenia [4] was 6 (15.8) n (%). For the same molecule, the Hematologic [4] was 36 (94.7) n (%), the Hyperbilirubinemia [4] was 13 (34.2) n (%) and the Hyperglycemia [4] was 10 (26.3) n (%). The Hypertriglyceridemia [4] was 23 (60.5) n (%), the Hypoalbuminemia [4] was 6 (15.8) n (%) and the Hypocalcemia [4] was 19 (50.0) n (%). The Hypokalemia [4] was 10 (26.3) n (%), the Hyponatremia [4] was 10 (26.3) n (%) and the Increased alanine aminotransferase [4] was 9 (23.7) n (%). For the same molecule, the Increased alkaline phosphatase [4] was 5 (13.2) n (%), the Increased aspartate aminotransferase [4] was 10 (26.3) n (%) and the Increased creatine phosphokinase [4] was 5 (13.2) n (%). For the same molecule, the “Increased γ-glutamyl transferase” value [4] was 9 (23.7) n (%), the Leukopenia [4] was 19 (50.0) n (%) and the Myalgia [4] was 8 (21.1) n (%). The Neutropenia [4] was 8 (21.1) n (%), the Nonhematologic [4] was 38 (100.0) n (%) and the Pain in extremity [4] was 7 (18.4) n (%). The Proteinuria [4] was 19 (50.0) n (%), the Pyrexia [4] was 9 (23.7) n (%) and the Rash [4] was 8 (21.1) n (%). The Sinus tachycardia [4] was 7 (18.4) n (%), the Skin pigmentation [4] was 31 (81.6) n (%) and the Thrombocytopenia [4] was 33 (86.8) n (%). For the same molecule, the Treatment-related adverse events [4] was 38 (100.0) n (%), the Anemia [5] was 66 (52.0) n (%) and the Arthralgia [5] was 11 (8.7) n (%). The Asthenia [5] was 12 (9.4) n (%), the Hematologic [5] was 102 (80.3) n (%) and the Hyperbilirubinemia [5] was 56 (44.1) n (%). For the same molecule, the Hyperglycemia [5] was 33 (26.0) n (%), the Hypertriglyceridemia [5] was 72 (56.7) n (%) and the Hypoalbuminemia [5] was 20 (15.7) n (%). The Hypocalcemia [5] was 45 (35.4) n (%), the Hypokalemia [5] was 32 (25.2) n (%) and the Hyponatremia [5] was 28 (22.0) n (%). The Increased alanine aminotransferase [5] was 50 (39.4) n (%), the Increased alkaline phosphatase [5] was 16 (12.6) n (%) and the Increased aspartate aminotransferase [5] was 49 (38.6) n (%). The Increased creatine phosphokinase [5] was 43 (33.9) n (%), the “Increased γ-glutamyl transferase” value [5] was 38 (29.9) n (%) and the Leukopenia [5] was 37 (29.1) n (%). For the same molecule, the Myalgia [5] was 23 (18.1) n (%), the Neutropenia [5] was 18 (14.2) n (%) and the Nonhematologic [5] was 127 (100.0) n (%). The Pain in extremity [5] was 14 (11.0) n (%), the Proteinuria [5] was 65 (51.2) n (%) and the Pyrexia [5] was 21 (16.5) n (%). The Rash [5] was 19 (15.0) n (%), the Sinus tachycardia [5] was 23 (18.1) n (%) and the Skin pigmentation [5] was 108 (85.0) n (%). The Thrombocytopenia [5] was 93 (73.2) n (%), the Treatment-related adverse events [5] was 127 (100.0) n (%) and the Anemia (TRAE any grades, Total n=165) was 90 (54.5) n (%). The Arthralgia (TRAE any grades, Total n=165) was 19 (11.5) n (%) and the Asthenia (TRAE any grades, Total n=165) was 18 (10.9) n (%).
